One assay deals with passive cutaneous anaphylaxis. Nature of the assay: passive cutaneous anaphylaxis test (P.C.A.) on rats, oral administration. It is filed as in vivo, rat (SLC Wister). The settings on record: 0.5 h, rat, 30 mg/kg, antigen 30 minutes after administration, read-out: Percent inhibition (%). As for the experimental part: Various 5-hydroxy-quinolopyran-4-one-2-carboxylic acid esters in terms of the R group represented by the general formula [I] were prepared. […] In order to estimate the efficacy of each compound as an anti-allergic antasthmatic, the efficacy was evaluated according to a passive cutaneous anaphylaxis test (P.C.A.) on rats.
To SLC Wister rats were administered intracutaneously egg white albumin recrystallized 5 times and Bodetallapertussis Vaccine, and serum was collected after 13 days from the rats. […] A physiological salt solution in which egg white albumin and a dye (Evans' blue) were dissolved was administered intravenously, 30 minutes after the oral administration, to the rats; and 30 minutes thereafter the back skins of the rats were peeled off. The dye that transuded from the peeled skin was extracted with Na2 SO4 and acetone, and the quantities of the dye were measured by colorimetry at 620 m μ.
With `CCC(CC)OC(=O)c1cc(=O)c2c(O)nc3c(C)c(C)ccc3c2o1` [3-pentyl ester of 7,8-dimethyl-5-hydroxy-quinolo[4,3-b]pyran-4-one-2-carboxylic acid], the inhibition in vivo at 30 mg/kg was determined as 65.3%.

With `Cc1ccc2c(nc(O)c3c(=O)cc(C(=O)OCCCc4ccccc4)oc32)c1C` [3-phenyl-1-propyl ester of 7,8-dimethyl-5-hydroxy-quinolo[4,3-b]pyran-4-one-2-carboxylic acid, reference compound], the inhibition in vivo at 30 mg/kg is -7.2%.

`Cc1ccc2c(nc(O)c3c(=O)cc(C(=O)OCCCC(C)C)oc32)c1C` [4-methyl-1-pentyl ester of 7,8-dimethyl-5-hydroxy-quinolo[4,3-b]pyran-4-one-2-carboxylic acid]: the inhibition in vivo at 30 mg/kg amounted to 78.5%.

Take `Cc1ccc2c(nc(O)c3c(=O)cc(C(=O)OC(C)CC(C)C)oc32)c1C` (stereo not drawn) [4-methyl-2-pentyl ester of 7,8-dimethyl-5-hydroxy-quinolo[4,3-b]pyran-4-one-2-carboxylic acid]: the inhibition in vivo at 30 mg/kg was 67.6%.

On to `Cc1ccc2c(nc(O)c3c(=O)cc(C(=O)OC(C)C)oc32)c1C` [isopropyl ester of 7,8-dimethyl-5-hydroxy-quinolo[4,3-b]pyran-4-one-2-carboxylic acid, reference compound], for which the inhibition in vivo at 30 mg/kg came to 7.3%.

With `CCCCOC(=O)c1cc(=O)c2c(O)nc3c(C)c(C)ccc3c2o1` [n-butyl ester of 7,8-dimethyl-5-hydroxy-quinolo[4,3-b]pyran-4-one-2-carboxylic acid, reference compound], the inhibition in vivo at 30 mg/kg was found to be 48.8%.

On to `CCCCCCCCCCOC(=O)c1cc(=O)c2c(O)nc3c(C)c(C)ccc3c2o1` [n-decyl ester of 7,8-dimethyl-5-hydroxy-quinolo[4,3-b]pyran-4-one-2-carboxylic acid, reference compound], for which the inhibition in vivo at 30 mg/kg is 4.7%.

For the compound `CCCCCCCCCCCCOC(=O)c1cc(=O)c2c(O)nc3c(C)c(C)ccc3c2o1` [n-dodecyl ester of 7,8-dimethyl-5-hydroxy-quinolo[4,3-b]pyran-4-one-2-carboxylic acid, reference compound], the inhibition in vivo at 30 mg/kg was -26.2%.

With `CCCCCCCOC(=O)c1cc(=O)c2c(O)nc3c(C)c(C)ccc3c2o1` [n-heptyl ester of 7,8-dimethyl-5-hydroxy-quinolo[4,3-b]pyran-4-one-2-carboxylic acid, reference compound], the inhibition in vivo at 30 mg/kg came to 36.3%.

For the compound `CCCCCCOC(=O)c1cc(=O)c2c(O)nc3c(C)c(C)ccc3c2o1` [n-hexyl ester of 7,8-dimethyl-5-hydroxy-quinolo[4,3-b]pyran-4-one-2-carboxylic acid], the inhibition in vivo at 30 mg/kg was found to be 72%.

Take `CCCCCCCCOC(=O)c1cc(=O)c2c(O)nc3c(C)c(C)ccc3c2o1` [n-octyl ester of 7,8-dimethyl-5-hydroxy-quinolo[4,3-b]pyran-4-one-2-carboxylic acid, reference compound]: the inhibition in vivo at 30 mg/kg was 39.3%.

The same assay, now with this note: 0.5 h, rat, 100 mg/kg, antigen 30 minutes after administration, read-out: Percent inhibition (%).
In the case of `Cc1ccc2c(nc(O)c3c(=O)cc(C(=O)O)oc32)c1C` [7,8-dimethyl-5-hydroxy-quinolo[4,3-b]pyran-4-one-2-carboxylic acid, reference compound], the inhibition in vivo at 100 mg/kg worked out at 5.5%.

On to `Cc1ccc2c(nc(O)c3c(=O)cc(C(=O)OCc4ccccc4)oc32)c1C` [benzyl ester of 7,8-dimethyl-5-hydroxy-quinolo[4,3-b]pyran-4-one-2-carboxylic acid, reference compound], for which the inhibition in vivo at 100 mg/kg was 13.2%.

Regarding `CCOC(=O)c1cc(=O)c2c(O)nc3c(C)c(C)ccc3c2o1` [ethyl ester of 7,8-dimethyl-5-hydroxy-quinolo[4,3-b]pyran-4-one-2-carboxylic acid, reference compound], the inhibition in vivo at 100 mg/kg amounted to 36.1%.

Take `COC(=O)c1cc(=O)c2c(O)nc3c(C)c(C)ccc3c2o1` [methyl ester of 7,8-dimethyl-5-hydroxy-quinolo[4,3-b]pyran-4-one-2-carboxylic acid, reference compound]: the inhibition in vivo at 100 mg/kg is 39.4%.

The values are drawn from patent US4298610A, “Ester derivatives of quinolopyran-4-one-2-carboxylic acids and antiallergic antasthmatics” (priority 1978, dated 1981).
